Test results from patent US9012626B2, “Rebaudioside a composition and method for purifying rebaudioside a” (The Coca-Cola Company, priority 2006, dated 2015).

Experiment: Rate of dissolution in H2O at 25° C.
Type: physicochemical

| SMILES | Rate of dissolution in H2O at 25° C. (grade in words) | Rate of dissolution in H2O at 25° C. (amount dissolved) (in 60 minutes) | Rate of dissolution compared to the polymorphic forms (Forms 1, 2, or 3) | Rate of dissolution in H2O at 25° C. (amount dissolved) (in 5 minutes) |
| --- | --- | --- | --- | --- |
| C=C1C[C@@]23CC[C@H]4[C@@](C)(CCC[C@@]4(C)C(=O)O[C@@H]4O[C@H](CO)[C@@H](O)[C@H](O)[C@H]4O)[C@@H]2CC[C@]1(O[C@@H]1O[C@H](CO)[C@@H](O)[C@H](O[C@@H]2O[C@H](CO)[C@@H](O)[C@H](O)[C@H]2O)[C@H]1O[C@@H]1O[C@H](CO)[C@@H](O)[C@H](O)[C@H]1O)C3 [Form 1, rebaudioside A] | Very low | (<0.2% in 60 | – | – |
| C=C1C[C@@]23CC[C@H]4[C@@](C)(CCC[C@@]4(C)C(=O)O[C@@H]4O[C@H](CO)[C@@H](O)[C@H](O)[C@H]4O)[C@@H]2CC[C@]1(O[C@@H]1O[C@H](CO)[C@@H](O)[C@H](O[C@@H]2O[C@H](CO)[C@@H](O)[C@H](O)[C@H]2O)[C@H]1O[C@@H]1O[C@H](CO)[C@@H](O)[C@H](O)[C@H]1O)C3 [Form 4, rebaudioside A] | High | – | improved rate of dissolution | (>35% in 5 |
| C=C1C[C@@]23CC[C@H]4[C@@](C)(CCC[C@@]4(C)C(=O)O[C@@H]4O[C@H](CO)[C@@H](O)[C@H](O)[C@H]4O)[C@@H]2CC[C@]1(O[C@@H]1O[C@H](CO)[C@@H](O)[C@H](O[C@@H]2O[C@H](CO)[C@@H](O)[C@H](O)[C@H]2O)[C@H]1O[C@@H]1O[C@H](CO)[C@@H](O)[C@H](O)[C@H]1O)C3 [Form 2, rebaudioside A] | Intermediate | – | – | (<30% in 5 |
| C=C1C[C@@]23CC[C@H]4[C@@](C)(CCC[C@@]4(C)C(=O)O[C@@H]4O[C@H](CO)[C@@H](O)[C@H](O)[C@H]4O)[C@@H]2CC[C@]1(O[C@@H]1O[C@H](CO)[C@@H](O)[C@H](O[C@@H]2O[C@H](CO)[C@@H](O)[C@H](O)[C@H]2O)[C@H]1O[C@@H]1O[C@H](CO)[C@@H](O)[C@H](O)[C@H]1O)C3 [Form 3, rebaudioside A] | High | – | – | (>30% in 5 |
